{"source": "patent US7374748B2", "about": "“Pharmaceutical and cosmetic compositions for the protection of the skin from damages induced by sun radiations” (Indena S.p.A., priority 2001, dated 2008)", "test_system": "hepatic microsomes", "test": "antioxidant test with CCl4 as pro-oxidant stimulus and hepatic microsomes as target", "type": "biochemical", "conditions": "CCl4 as pro-oxidant stimulus, hepatic microsomes as target", "source_text": "They are characterized by excellent antioxidizing and antiinflammatory properties."}
{"substance": "vitamin E", "values": [{"measurement": "LC50 (antioxidant activity)", "result": 30.0, "unit": "micrograms per ml"}]}
